# Data reported in patent publication US20200022967A1, “Use of 2-carboxamide cycloamino urea derivatives in the treatment of EGFR dependent diseases or diseases that have acquired resistance to agents that target EGFR family members” (Novartis AG, priority 2010, published 2020).
# Legend:
# [1] = test system: HBCx-5 xenograft tumor; test: HBCx-5 breast cancer xenograft, antitumor activity (Example 5); assay type: in vivo, mice; details: Compound A 50 mg/kg p.o. daily for 42 days, single agent; p<0.001
# Procedure: Compound A was suspended at mg/ml in 0.5% methylcellulose (Sigma Aldrich, St. Louis, Mo.). It was homogenized by stirring vortexing and sonication. The suspension was stored at 4° C. for 7 days protected from light. […] Stock solution at 21 mg/ml was diluted just before administration at 1 mg/ml with sterile water for injection. Capecitabine (Xeloda®, Roche) at […] was kept at 4° C. protected from light. Capecitabine pellets were crushed and suspended in NaCl 0.9%.
# Dose was body weight adjusted at each injection.
# Capecitabine was administered by oral gavage (p.o.) at […], five times per week for two weeks (i.e., five consecutive dosing days/week). After a one week rest, a second treatment cycle was performed.
# [2] = test system: BT474; test: Cell proliferation in BT474 breast cancer model; assay type: cell-based, human
# [3] = test system: BT-474 tumors; test: BT474 orthotopic xenograft, Compound A and trastuzumab combination (Example 3); assay type: in vivo, mice
# Procedure: The Compound was fully dissolved in NMP. Then, PEG300 and liquified Solutol were added (in sequence with vortexing after addition of each reagent).
# Where applicable, data is presented as mean±SEM.
# [4] = Body weight nadir and deaths in NCI-N87 trastuzumab study (Example 4); assay type: in vivo, mice
# Source text: Treatments started 9 days post tumor cell implantation and lasted for 30 consecutive days (or until tumor volume=2000 mm^3).
# [5] = Body weight in BT474 combination study (Example 3); assay type: in vivo, mice; details: Compound A 50 mg/kg p.o. daily, single agent; significant
# Procedure: (§1) Tumor volumes were measured with calipers and determined according to the formula: length×diameter^2×π/6. […] Regressions (%) were calculated according to the formula ((mean tumor volume at end of treatment-mean tumor volume at start of treatment)/mean tumor volume at start of treatment)×100. Body weights and tumor volumes were recorded twice a week.
# (§2) Where applicable, data is presented as mean±SEM. For all tests, the level of significance was set at p<0.05. For tumor volumes, comparisons between treatment groups and vehicle control group were done using one-way ANOVA followed by Dunnett's test. The level of significance of body weight change within a group between the start and the end of the treatment period was determined using a paired t-test. Comparisons of delta body weights between treatment and vehicle control groups were performed by a one-way ANOVA followed by a post hoc Dunnett's test.
# [6] = Body weight change in NCI-N87 xenograft mice (Example 2); assay type: in vivo; details: 50 mg/kg p.o. once daily; not significant
# Procedure: as §1, §2
# [7] = Body weight nadir and deaths in NCI-N87 lapatinib study (Example 6)
# Procedure: Treatments started eight days post tumor cell implantation and lasted for 59 consecutive days or until tumor volume=1000 mm^3. […] For the b.i.d. dosing schedule, the first dose was given p.m. on Day 1 and last dose a.m. on Day 22. […] Body weights were recorded on Days 1-5, on each treatment day (except weekends), and twice weekly thereafter until end of the study.
# [8] = test system: NCI-N87 tumors; test: NCI-N87 subcutaneous gastric cancer xenograft, antitumor activity (Example 2); assay type: in vivo, mice; details: 50 mg/kg p.o. once daily
# Procedure: Experiments were performed in female HsdNpa:Athymic Nude-nu mice approximately 8-12 weeks of age at treatment start. All animals were housed under Optimized Hygienic conditions in Makrolon type III cages (max. 10 animals per cage) with free access to food and water.
# NCI-N87 cells (obtained from the American Type Culture Collection), which are of gastric origin and ErbB2 amplified, were grown in DMEM culture medium containing 4.5 g/l glucose supplemented with 10% heat-inactivated FCS, 2 mM L-glutamine, and 1 mM sodium pyruvate. The cells were incubated at 37° C. in a 5% CO2 humidified atmosphere. Cells were harvested with trypsin (0.25% w/v)-EDTA (0.53 mM), re-suspended in culture medium (with additives) and counted with a Casy® system. Cell culture reagents were purchased from BioConcept (Allschwil, Switzerland).
# NCI-N87 tumors were established from fragments of approximately 40 mg implanted subcutaneously into the female HsdNpa:Athymic Nude-nu mice with a trocar needle. Treatment started when the tumors reached a size of approximately 110 mm^3, 25 days post implantation.
# The Compound was fully dissolved in NMP. Then, PEG300 and liquified Solutol were added (in sequence with vortexing after addition of each reagent). Water was added immediately prior to administration to the animals.
# as §1
# as §2, with “Comparisons of delta body weights between treatment and vehicle control groups were performed by a one-way ANOVA followed by a post hoc Dunnett's test.” left out
# [9] = Group 3: Compound A 25 mg/kg p.o. once daily
# [10] = Group 4: Compound A 50 mg/kg p.o. once daily
# [11] = Group 2: Compound A 12.5 mg/kg p.o. once daily
smiles,measurement,setting,value
"Cc1nc(NC(=O)N2CCC[C@H]2C(N)=O)sc1-c1ccnc(C(C)(C)C(F)(F)F)c1 [Compound A, (S)-Pyrrolidine-1,2-dicarboxylic acid 2-amide 1-({4-methyl-5-[2-(2,2,2-trifluoro-1,1-dimethyl-ethyl)-pyridin-4-yl]-thiazol-2-yl}-amide)]",T/C,[1],17.57%
same,cell death,"[2]; BT474, overexpressed ErbB2",induces cell death
same,GI50,"[2]; BT474 breast cancer model, ErbB2 amplified, read-out: median GI50",139 ± 82 nM
same,Change Tumor Volume,"[3]; B: Compound A 12.5 mg/kg p.o. daily, control C 584.2",125.7
same,T/C,"[3]; Compound A 12.5 mg/kg p.o. daily, single agent",21.5%
same,antitumor effect,"[3]; Compound A 50 mg/kg p.o. daily, single agent, p<0.05 Mann-Whitney",statistically significant antitumor effect
same,B/C,"[3]; change tumor volume ratio, Compound A 12.5 mg/kg vs control",0.215
same,Deaths (TR/NTR),[4]; Group 2 (8 animals): Compound A 12.5 mg/kg p.o. once daily,0
same,Mean BW Nadir (lowest group mean BW),"[4]; Group 2: Compound A 12.5 mg/kg p.o. once daily, Day 22",−7% (Day 22)
same,Deaths NTR = non-treatment related,[4]; [9],NTR: 1
same,Deaths TR = treatment-related,[4]; [9],TR: 1
same,Mean BW Nadir (lowest group mean BW),"[4]; Group 3: Compound A 25 mg/kg p.o. once daily, Day 26",−12.2% (Day
same,Deaths NTR = non-treatment related,[4]; [10],NTR: 0
same,Deaths TR = treatment-related,[4]; [10],TR: 4
same,Mean BW Nadir (lowest group mean BW),"[4]; Group 4: Compound A 50 mg/kg p.o. once daily, Day 12",−13.1% (Day
same,body weight loss,[5],about 12%
same,mean change of body weight,[6],3.8±2.1%
same,Deaths NTR = non-treatment related,[7]; [11],NTR: 1
same,Deaths TR = treatment-related,[7]; [11],TR: 1
same,Deaths NTR = non-treatment related,[7]; [9],NTR: 1
same,Deaths TR = treatment-related,[7]; [9],TR: 1
same,Mean BW Nadir (lowest group mean BW),"[7]; Group 3: Compound A 25 mg/kg p.o. once daily, Day 14",−8.4%
same,regression,[8],11%
same,antitumor effect as compared to vehicle,[8]; p<0.05 ANOVA,statistically significant antitumor effect
same,mean change of tumor volume,[8]; vehicle 694.0±93.5,−11.8±17.2 mm^3
